# ± gives the standard deviation of the averaged measurements.
# Experiments:
# Test in all cases: relative cell growth vs untreated control (GI, NCI-DTP normalisation with time-zero) (fraction of control growth); higher = more growth / less inhibition
# Details in all cases: treatment time: 120 h
# HEPG2 = system: HEPG2
# Method: (§1)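 Cancer cell lines in 96-well plates were treated 48 h after seeding with M4076 (ATM inhibitor) and berzosertib (ATR inhibitor), alone or mixed, in 4-fold dilutions for 120 h. Protein was read by sulforhodamine B staining, background-subtracted and normalised NCI-DTP style to untreated control growth. Rows with one concentration equal to 0 are monotherapy.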
# HL60 = system: HL60
# Method: as §1
# IGROV1 = system: IGROV1
# Method: as §1
# U2OS = system: U2OS
# Method: as §1
# MV411 = system: MV411
# Method: as §1
# WSUNHL = system: WSUNHL
# Method: as §1
# SAOS2 = system: SAOS2
# Method: as §1
# [1] = concentration of first compound 0.0195 µM, concentration of partner 0 M
# [2] = concentration of first compound 0.0195 µM, concentration of partner 0.2 µM
# [3] = concentration of first compound 0.0781 µM, concentration of partner 0 M
# [4] = concentration of first compound 0.0781 µM, concentration of partner 0.2 µM
# [5] = concentration of first compound 0.313 µM, concentration of partner 0 M
# [6] = concentration of first compound 0.313 µM, concentration of partner 0.2 µM
# [7] = concentration of first compound 1 µM, concentration of partner 0 M
# [8] = concentration of first compound 1 µM, concentration of partner 0.0195 µM
# [9] = concentration of first compound 1 µM, concentration of partner 0.0781 µM
# [10] = concentration of first compound 1 µM, concentration of partner 0.313 µM
# [11] = concentration of first compound 1 µM, concentration of partner 1.25 µM
# [12] = concentration of first compound 1 µM, concentration of partner 5 µM
# [13] = concentration of first compound 1.25 µM, concentration of partner 0 M
# [14] = concentration of first compound 1.25 µM, concentration of partner 0.2 µM
# [15] = concentration of first compound 5 µM, concentration of partner 0 M
# [16] = concentration of first compound 5 µM, concentration of partner 0.2 µM
# [17] = concentration of first compound 0.2 µM, concentration of partner 0 M
smiles,measurement,setting,value
COc1cc2ncc3c(c2cc1-c1cn(C)nc1C)n(-c1c(F)cncc1OC)c(=O)n3C [M4076] + CNCc1ccc(-c2cc(-c3nc(-c4ccc(S(=O)(=O)C(C)C)cc4)cnc3N)on2)cc1 [berzosertib],relative cell growth,HEPG2; [1],1.41 ± 0.32
same,relative cell growth,HEPG2; [2],0.0154
same,relative cell growth,HEPG2; [3],1.4 ± 0.32
same,relative cell growth,HEPG2; [4],0.000629
same,relative cell growth,HEPG2; [5],1.23 ± 0.28
same,relative cell growth,HEPG2; [6],-0.027
same,relative cell growth,HEPG2; [7],0.829
same,relative cell growth,HEPG2; [8],0.596
same,relative cell growth,HEPG2; [9],0.0729
same,relative cell growth,HEPG2; [10],-0.0203
same,relative cell growth,HEPG2; [11],-0.023
same,relative cell growth,HEPG2; [12],-0.0325
same,relative cell growth,HEPG2; [13],1.16 ± 0.26
same,relative cell growth,HEPG2; [14],-0.0218
same,relative cell growth,HEPG2; [15],0.843 ± 0.19
same,relative cell growth,HEPG2; [16],-0.0276
same,relative cell growth,HL60; [1],1.14 ± 0.11
same,relative cell growth,HL60; [2],1.06
same,relative cell growth,HL60; [3],1.13 ± 0.1
same,relative cell growth,HL60; [4],1.12
same,relative cell growth,HL60; [5],1.03 ± 0.096
same,relative cell growth,HL60; [6],0.788
same,relative cell growth,HL60; [7],0.862
same,relative cell growth,HL60; [8],0.88
same,relative cell growth,HL60; [9],0.707
same,relative cell growth,HL60; [10],0.0883
same,relative cell growth,HL60; [11],0.00814
same,relative cell growth,HL60; [12],-0.0212
same,relative cell growth,HL60; [13],0.958 ± 0.089
same,relative cell growth,HL60; [14],0.344
same,relative cell growth,HL60; [15],0.746 ± 0.07
same,relative cell growth,HL60; [16],0.207
same,relative cell growth,IGROV1; [1],1.27 ± 0.21
same,relative cell growth,IGROV1; [2],0.543
same,relative cell growth,IGROV1; [3],1.36 ± 0.22
same,relative cell growth,IGROV1; [4],0.527
same,relative cell growth,IGROV1; [5],1.18 ± 0.19
same,relative cell growth,IGROV1; [6],0.376
same,relative cell growth,IGROV1; [7],0.9
same,relative cell growth,IGROV1; [8],0.964
same,relative cell growth,IGROV1; [9],0.604
same,relative cell growth,IGROV1; [10],0.0905
same,relative cell growth,IGROV1; [11],-0.0208
same,relative cell growth,IGROV1; [12],-0.0274
same,relative cell growth,IGROV1; [13],1.02 ± 0.17
same,relative cell growth,IGROV1; [14],0.327
same,relative cell growth,IGROV1; [15],0.48 ± 0.079
same,relative cell growth,IGROV1; [16],0.0986
same,relative cell growth,U2OS; [1],1.1 ± 0.054
same,relative cell growth,U2OS; [2],0.876
same,relative cell growth,U2OS; [3],1.09 ± 0.053
same,relative cell growth,U2OS; [4],0.865
same,relative cell growth,U2OS; [5],0.972 ± 0.048
same,relative cell growth,U2OS; [6],0.504
same,relative cell growth,U2OS; [7],0.916
same,relative cell growth,U2OS; [8],0.798
same,relative cell growth,U2OS; [9],0.611
same,relative cell growth,U2OS; [10],0.191
same,relative cell growth,U2OS; [11],-0.111
same,relative cell growth,U2OS; [12],-0.131
same,relative cell growth,U2OS; [13],0.935 ± 0.046
same,relative cell growth,U2OS; [14],0.312
same,relative cell growth,U2OS; [15],0.852 ± 0.042
same,relative cell growth,U2OS; [16],0.229
same,relative cell growth,MV411; [1],1.23 ± 0.16
same,relative cell growth,MV411; [2],1.18
same,relative cell growth,MV411; [3],1.28 ± 0.17
same,relative cell growth,MV411; [4],1.09
same,relative cell growth,MV411; [5],1.24 ± 0.16
same,relative cell growth,MV411; [6],0.887
same,relative cell growth,MV411; [7],0.903
same,relative cell growth,MV411; [8],1.22
same,relative cell growth,MV411; [9],1.18
same,relative cell growth,MV411; [10],0.312
same,relative cell growth,MV411; [11],-0.0158
same,relative cell growth,MV411; [12],-0.0221
same,relative cell growth,MV411; [13],1.09 ± 0.14
same,relative cell growth,MV411; [14],0.746
same,relative cell growth,MV411; [15],0.708 ± 0.092
same,relative cell growth,MV411; [16],0.603
same,relative cell growth,WSUNHL; [1],1.22 ± 0.035
same,relative cell growth,WSUNHL; [2],1.48
same,relative cell growth,WSUNHL; [3],1.26 ± 0.036
same,relative cell growth,WSUNHL; [4],1.47
same,relative cell growth,WSUNHL; [5],0.983 ± 0.028
same,relative cell growth,WSUNHL; [6],1.07
same,relative cell growth,WSUNHL; [7],0.649
same,relative cell growth,WSUNHL; [8],0.896
same,relative cell growth,WSUNHL; [9],0.716
same,relative cell growth,WSUNHL; [10],-0.00911
same,relative cell growth,WSUNHL; [11],-0.0958
same,relative cell growth,WSUNHL; [12],-0.11
same,relative cell growth,WSUNHL; [13],0.572 ± 0.016
same,relative cell growth,WSUNHL; [14],0.294
same,relative cell growth,WSUNHL; [15],0.166 ± 0.0046
same,relative cell growth,WSUNHL; [16],0.0497
same,relative cell growth,SAOS2; [1],1.16 ± 0.15
same,relative cell growth,SAOS2; [2],0.735
same,relative cell growth,SAOS2; [3],1.14 ± 0.15
same,relative cell growth,SAOS2; [4],0.657
same,relative cell growth,SAOS2; [5],1.05 ± 0.14
same,relative cell growth,SAOS2; [6],0.319
same,relative cell growth,SAOS2; [7],0.782
same,relative cell growth,SAOS2; [8],0.871
same,relative cell growth,SAOS2; [9],0.482
same,relative cell growth,SAOS2; [10],0.119
same,relative cell growth,SAOS2; [11],-0.0926
same,relative cell growth,SAOS2; [12],-0.1
same,relative cell growth,SAOS2; [13],0.871 ± 0.11
same,relative cell growth,SAOS2; [14],0.146
same,relative cell growth,SAOS2; [15],0.652 ± 0.084
same,relative cell growth,SAOS2; [16],0.113
CNCc1ccc(-c2cc(-c3nc(-c4ccc(S(=O)(=O)C(C)C)cc4)cnc3N)on2)cc1 [berzosertib] + COc1cc2ncc3c(c2cc1-c1cn(C)nc1C)n(-c1c(F)cncc1OC)c(=O)n3C [M4076],relative cell growth,HEPG2; [1],1.09 ± 0.22
same,relative cell growth,HEPG2; [3],0.33 ± 0.067
same,relative cell growth,HEPG2; [17],0.0562
same,relative cell growth,HEPG2; [5],0.0114 ± 0.0023
same,relative cell growth,HEPG2; [13],-0.033 ± 0.0067
same,relative cell growth,HEPG2; [15],-0.0501 ± 0.01
same,relative cell growth,HL60; [1],1.14 ± 0.12
same,relative cell growth,HL60; [3],1.1 ± 0.12
same,relative cell growth,HL60; [17],0.809
same,relative cell growth,HL60; [5],0.53 ± 0.056
same,relative cell growth,HL60; [13],0.0485 ± 0.0051
same,relative cell growth,HL60; [15],-0.0133 ± 0.0014
same,relative cell growth,IGROV1; [1],1.15 ± 0.21
same,relative cell growth,IGROV1; [3],1.01 ± 0.18
same,relative cell growth,IGROV1; [17],0.468
same,relative cell growth,IGROV1; [5],0.129 ± 0.023
same,relative cell growth,IGROV1; [13],-0.0355 ± 0.0062
same,relative cell growth,IGROV1; [15],-0.0657 ± 0.012
same,relative cell growth,U2OS; [1],1.07 ± 0.072
same,relative cell growth,U2OS; [3],0.977 ± 0.066
same,relative cell growth,U2OS; [17],0.906
same,relative cell growth,U2OS; [5],0.9 ± 0.061
same,relative cell growth,U2OS; [13],0.0428 ± 0.0032
same,relative cell growth,U2OS; [15],-0.0411 ± 0.0025
same,relative cell growth,MV411; [1],1.25 ± 0.16
same,relative cell growth,MV411; [3],1.32 ± 0.17
same,relative cell growth,MV411; [17],0.778
same,relative cell growth,MV411; [5],0.429 ± 0.054
same,relative cell growth,MV411; [13],-0.0241 ± 0.003
same,relative cell growth,MV411; [15],-0.0294 ± 0.0037
same,relative cell growth,WSUNHL; [1],1.44 ± 0.031
same,relative cell growth,WSUNHL; [3],1.68 ± 0.036
same,relative cell growth,WSUNHL; [17],1.18
same,relative cell growth,WSUNHL; [5],0.779 ± 0.017
same,relative cell growth,WSUNHL; [13],-0.0504 ± 0.001
same,relative cell growth,WSUNHL; [15],-0.0908 ± 0.0019
same,relative cell growth,SAOS2; [1],1.16 ± 0.16
same,relative cell growth,SAOS2; [3],1.11 ± 0.15
same,relative cell growth,SAOS2; [17],0.645
same,relative cell growth,SAOS2; [5],0.559 ± 0.076
same,relative cell growth,SAOS2; [13],0.0446 ± 0.006
same,relative cell growth,SAOS2; [15],-0.116 ± 0.016
